Consider 31 compounds from patent publication US11873290B2, “Pyridazinone compounds and uses thereof” (Edgewise Therapeutics, Inc., priority 2018, dated 2024).

Some results are limits rather than exact numbers.

This assay concerns the target skeletal myofibrils (myosin ATPase activity). The assay is described as follows: Skeletal Myofibril ATPase Assay. It is filed as biochemical. Particulars: PK-LDH coupled, absorbance at 340 nm. The method, then:
Overview: Myosin ATPase activity is assessed by using a coupled reaction system, in which ADP generated by the myosin ATPase function is coupled to the disappearance of NADH through the pyruvate kinase/lactate dehydrogenase (PK-LDH) system. Myosin ATPase activity produces ADP, which is used as a substrate for PK to produce pyruvate and regenerate ATP. The pyruvate is then used as a substrate by LDH to oxidize NADH to NAD+. The rate of the reaction is monitored through the time-dependent disappearance of NADH using absorbance at 340 nm. Inhibition of ATPase activity by the assayed compounds is indicated by a reduced rate of NADH loss, relative to vehicle-treated controls, over the experimental time window. To assess the selectivity of the assayed compounds for skeletal myofibrils, the compounds are counter-screened in cardiac myofibrils.
Materials: The following stock solutions and reagents were used in the Skeletal Myofibril ATPase Assay:
Stock Solutions of pCa buffer. Combine PIPES, CaCl2, and EGTA solutions with 70 mL of water. Adjust pH to 7.0 and bring final volume to 100 mL.
Skeletal Myofibril ATPase Assay Procedure: BSA, ATP, NADH, PEP, and DTT solutions were thawed at room temperature, then transferred to ice. Pellet-frozen myofibrils (approximately twice the required volume) were transferred into a sufficiently large tube and capped. Myofibrils were thawed by rolling in a water bath for approximately 15 min at room temperature and cooled on ice. Buffers A and B were prepared by adjusting volumes as necessary for required number of wells and stored on ice. 0.5 μL of the compounds to be assayed were added into wells of a 384-well plate. Buffers A and B were mixed by inversion immediately prior to use, then 25 μL of each was dispensed using a Multidrop dispenser (Buffer A first, then Buffer B). The absorbance within the wells was measured at 340 nm, using a kinetic protocol in which the wells are read every 1.5-2 min for 1 h. The reaction rate was qualitatively assessed by subtracting the minimum absorbance value from the maximum value for each well, using either the SoftMax Pro plate reader software or a spreadsheet program such as Excel. Using GraphPad Prism 8.0, the data was normalized, with 100% activity defined as the absorbance change in the 1% DMSO vehicle wells and 0% assigned to no change in absorbance over the course of the experiment. The normalized data were fit to a variable-slope four-parameter logistic model, constraining the bottom to be 0 or greater. Compounds of Table 1 to 4 were tested and results of the assay appear in Table 5 herein. A=IC50 is less than or equal to 10 μM; B=IC50 is greater than 10 μM and less than 100 μM; C=IC50 is greater than 100 μM; […].
For the compound `Cc1ncc(Cn2nc(-c3cnc(OCC(F)(F)F)nc3)ccc2=O)cc1F` [Compound 52, 2-((5-fluoro-6-methylpyridin-3-yl)methyl)-6-(2-(2,2,2-trifluoroethoxy)pyrimidin-5-yl)pyridazin-3(2H)-one], the IC50 (commonly the concentration that inhibits the measured activity by half) was < 10 µM.
On to `O=c1ccc(-c2cnc(OCC(F)(F)F)nc2)nn1Cc1cnco1` [Compound 53, 2-(oxazol-5-ylmethyl)-6-(2-(2,2,2,- trifluoroethoxy)pyrimidin-5-yl)pyridazin-3(2H)-one], for which the IC50 is < 10 µM.
As to `O=c1ccc(-c2cnc(N3CCCC3C(F)(F)F)nc2)nn1Cc1cncc(F)c1` (stereo not drawn) [Compound 54, 2-((5-fluoropyridin-3-yl)methyl)-6-(2-(2-(trifluoromethyl)pyrrolidin-l-yl)pyrimidin-5-yl)pyridazin-3(2H)-one], the IC50 is < 10 µM.
Turning to `O=c1ccc(-c2cnc(OCC(F)(F)F)nc2)nn1Cc1nc2cc(F)ccc2o1` [Compound 55, 2-((5-fluorobenzo[d]oxazol-2-yl)methyl)-6-(2-(2,2,2,- trifluoroethoxy)pyrimidin-5-yl)pyridazin-3(2H)-one], the IC50 is < 10 µM.
Regarding `COCc1cc(Cn2nc(-c3cnc(OCC(F)(F)F)nc3)ccc2=O)on1` [Compound 56, 2-((3-(methoxymethyl)isoxazol-5-yl)methyl)-6-(2-(2,2,2-trifluoroethoxy)pyrimidin-5-yl)pyridazin-3(2H)-one], the 50% inhibitory concentration (IC50) is < 10 µM.
For the compound `N#Cc1cncc(Cn2nc(-c3ccc(OC(F)F)nc3)ccc2=O)c1` [Compound 57, 5-((3-(6-(difluoromethoxy)pyridin-3-yl)-6-oxopyridazin-1(6H)-yl)methyl)nicotinonitrile], the IC50 lay within 10 to 100 µM.
With `Cn1cc(Cn2nc(-c3cnc(OCC(F)(F)F)nc3)ccc2=O)cn1` [Compound 58, 2-((1-methyl-1H-pyrazol-4-yl)methyl)-6-(2-(2,2,2-trifluoroethoxy)pyrimidin-5-yl)pyridazin-3(2H)-one], the half-maximal inhibitory concentration (IC50) was < 10 µM.
In the case of `O=c1ccc(-c2cnc(OCC(F)(F)F)nc2)nn1Cc1cncs1` [Compound 59, 2-(thiazol-5-ylmethyl)-6-(2-(2,2,2-trifluoroethoxy)pyrimidin-5-yl)pyridazin-3(2H)-one], the IC50 was < 10 µM.
As to `Cc1ncc(Cn2nc(-c3cnc(OCC(F)(F)F)nc3)ccc2=O)o1` [Compound 60, 2-((2-methyloxazol-5-yl)methyl)-6-(2-(2,2,2-trifluoroethoxy)pyrimidin-5-yl)pyridazin-3(2H)-one], the half-maximal inhibitory concentration (IC50) was < 10 µM.
Regarding `Cc1ncc(Cn2nc(-c3cnc(OCC(F)(F)F)nc3)ccc2=O)s1` [Compound 61, 2-((2-methylthiazol-5-yl)methyl)-6-(2-(2,2,2-trifluoroethoxy)pyrimidin-5-yl)pyridazin-3(2H)-one], the IC50 is < 10 µM.
For the compound `O=c1ccc(-c2cnc(NC34CC(C3)C4)nc2)nn1Cc1cncc(F)c1` [Compound 64, 6-(2-(bicyclo[1.1.1]pentan-1-ylamino)pyrimidin-5-yl)-2-((5-fluoropyridin-3-yl)methyl)pyridazine-3(2H)-one], the half-maximal inhibitory concentration (IC50) was < 10 µM.
The figure for `CSc1ncc(-c2ccc(=O)n(Cc3cc(C)no3)n2)cn1` [Compound 65, 2-((3-methylisoxazol-5-yl)methyl)-6-(2-(methylthio)pyrimidin-5-yl)pyridazine-3(2H)-one] is < 10 µM; for `O=c1ccc(-c2cnc(OCC3(F)COC3)nc2)nn1Cc1cncc(F)c1` [Compound 66, 6-(2-((3-fluorooxetan-3-yl)methoxy)pyrimidin-5-yl)-2((5-fluoropyridin-3-yl)methyl)pyridazine-3(2H)-one] it is < 10 µM; for `CCOc1ncc(-c2ccc(=O)n(Cc3cncc(F)c3)n2)cn1` [Compound 68, 6-(2-ethoxypyrimidin-5-yl)-2-((5-fluoropyridin-3-yl)methyl)pyridazine-3(2H)-one] it is < 10 µM.
For `COc1ncc(-c2ccc(=O)n(Cc3cncc(F)c3)n2)cn1` [Compound 69, 2-((5-fluoropyridin-3-yl)methyl)-6-(2-methoxypyrimidin-5-yl)pyridazine-3(2H)-one], the 50% inhibitory concentration (IC50) was < 10 µM.
Turning to `COCCOc1ncc(-c2ccc(=O)n(Cc3cncc(F)c3)n2)cn1` [Compound 70, 2-((5-fluoropyridin-3-yl)methyl)-6-(2-(2-methoxyethoxy)pyrimidin-5-yl)pyridazine-3(2H)-one], the half-maximal inhibitory concentration (IC50) was < 10 µM.
`O=c1ccc(-c2ccc(NC34CC(C3)C4)nc2)nn1Cc1cccnc1` [Compound 71]: the 50% inhibitory concentration (IC50) was < 10 µM.
In the case of `O=c1ccc(-c2ccc(NC34CC(C3)C4)nc2)nn1Cc1cncc(F)c1` [Compound 72, 6-(6-(bicyclo[1.1.1]pentan-1-ylamino)pyridin-3-yl)-2-((5-fluoropyridin-3-yl)methyl)pyridazin-3(2H)-one], the IC50 was < 10 µM.
As to `O=c1ccc(-c2cnc(N3CCC[C@@H]3C(F)(F)F)nc2)nn1Cc1cncc(F)c1` [Compound 73, (R)-2-((5-fluoropyridin-3-yl)methyl)-6-(2-(2-(trifluoromethyl)pyrrolidin-1-yl)pyrimidin-5-yl)pyridazin-3(2H)-one], the IC50 was < 10 µM.
With `O=c1ccc(-c2cnc(N3CCC[C@H]3C(F)(F)F)nc2)nn1Cc1cncc(F)c1` [Compound 74, (S)-2-((5-fluoropyridin-3-yl)methyl)-6-(2-(2-(trifluoromethyl)pyrrolidin-1-yl)pyrimidin-5-yl)pyridazin-3(2H)-one], the 50% inhibitory concentration (IC50) was < 10 µM.
For the compound `O=c1ccc(-c2cnc(NC34CC(C3)C4)nc2)nn1Cc1cncc(Cl)c1` [Compound 75, 6-(2-(bicyclo[1.1.1]pentan-1-ylamino)pyrimidin-5-yl)-2-((5-chloropyridin-3-yl)methyl)pyridazin-3(2H)-one], the IC50 is < 10 µM.
For the compound `O=c1ccc(-c2ccc(OC(F)F)nc2)nn1Cc1cncc(C(F)(F)F)c1` [Compound 76, 6-(6-(difluoromethoxy)pyridin-3-yl)-2-((5-(trifluoromethyl)pyridin-3-yl)methyl)pyridazin-3(2H)-one], the 50% inhibitory concentration (IC50) is < 10 µM.
Regarding `O=c1ccc(-c2cnc(OCC(F)(F)F)nc2)nn1Cc1cncc(C(F)(F)F)c1` [Compound 77, 6-(2-(2,2,2-trifluoroethoxy)pyrimidin-5-yl)-2-((5-(trifluoromethyl)pyridin-3-yl)methyl)pyridazin-3(2H)-one], the IC50 was < 10 µM.
For the compound `O=c1ccc(-c2cnc(OCC(F)(F)F)nc2)nn1Cc1cnccc1O` [Compound 78, 2-((4-hydroxypyridin-3-yl)methyl)-6-(2-(2,2,2-trifluoroethoxy)pyrimidin-5-yl)pyridazin-3(2H)-one], the IC50 was > 100 µM.
As to `O=c1ccc(-c2cnc(OCC(F)(F)F)nc2)nn1Cc1cnccc1F` [Compound 79, 2-((4-fluoropyridin-3-yl)methyl)-6-(2-(2,2,2-trifluoroethoxy)pyrimidin-5-yl)pyridazin-3(2H)-one], the IC50 was < 10 µM.
As to `O=c1ccc(-c2cnc(OCC(F)(F)F)nc2)nn1Cc1ccc[n+]([O-])c1` [Compound 80, 3-((6-oxo-3-(2-(2,2,2-trifluoroethoxy)pyrimidin-5-yl)pyridazin-1(6H)-yl)methyl)pyridine 1-oxide], the concentration for half-maximal inhibition (IC50) is > 100 µM.
For the compound `O=c1ccc(-c2cnc(OCC(F)(F)F)nc2)nn1Cc1cc[n+]([O-])cc1` [Compound 81, 4-((6-oxo-3-(2-(2,2,2-trifluoroethoxy)pyrimidin-5-yl)pyridazin-1(6H)-yl)methyl)pyridine 1-oxide], the half-inhibitory concentration (IC50) was > 100 µM.
`O=c1ccc(-c2cnc(OCC(F)(F)F)nc2)nn1Cc1cc(F)c[n+]([O-])c1` [Compound 82, 3-fluoro-5-((6-oxo-3-(2-(2,2,2-trifluoroethoxy)pyrimidin-5-yl)pyridazin-1(6H)-yl)methyl) pyridine 1-oxide] displayed an IC50 of 10 to 100 µM.
Turning to `Cc1nc(Cn2nc(-c3cnc(OCC(F)(F)F)nc3)ccc2=O)co1` [Compound 83, 2-((2-methyloxazol-4-yl)methyl)-6-(2-(2,2,2-trifluoroethoxy)pyrimidin-5-yl)pyridazin-3(2H)-one], the IC50 was 10 to 100 µM.
In the case of `O=c1ccc(-c2cnc(OCC(F)(F)F)nc2)nn1Cc1cnc(O)c(Cl)c1` [Compound 84, 2-((5-chloro-6-hydroxypyridin-3-yl)methyl)-6-(2-(2,2,2-trifluoroethoxy)pyrimidin-5-yl)pyridazin-3(2H)-one], the IC50 is > 100 µM.
`O=c1ccc(-c2cnc(OCC(F)(F)F)nc2)nn1Cc1cnoc1` [Compound 85, 2-(isoxazol-4-ylmethyl)-6-(2-(2,2,2-trifluoroethoxy)pyrimidin-5-yl)pyridazin-3(2H)-one] returned a 50% inhibitory concentration (IC50) of 10 to 100 µM.
